Several values for one entry are separate records, joined by “and”; a condition that tells them apart may be missing. Equal values may be shown once.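 All cell lines were grown in 96-well plates and treated with compound for 48 hours. GI50: concentration for 50% inhibition of growth. Definition used: TGI = concentration required for complete inhibition of growth.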

Results on 7 compounds are retold here after PubChem BioAssay (NCI).

Test systems include HL-60(TB) leukemia; SNB-75 CNS; T-47D breast; SR leukemia; NCI-H460 lung; HOP-92 NSCLC; CAKI-1 renal; OVCAR-4 ovarian; NCI-H226 lung; NCI-H23 lung.
What all share (test): NCI-60 cell line screen, 48 h

For the compound `COc1c(B(O)O)cccc1-c1nc2c(F)cc3n[nH]c(C)c3c2c2c1CCCC2`, the GI50 is 500 nM with HL-60(TB) leukemia; 15.2 nM in the experiment on SNB-75 CNS; 1330 nM in the experiment on T-47D breast; 964 nM with SR leukemia; 1280 nM in the experiment on NCI-H460 lung; 11.7 nM in the experiment with HOP-92 NSCLC. For the same compound, the GI50 with CAKI-1 renal was 10.6 nM; with OVCAR-4 ovarian it was 2710 nM; with NCI-H226 lung it was 892 nM; in the experiment with NCI-H23 lung, 1330 nM. Besides, the TGI with HL-60(TB) leukemia was over 12900 nM; with SNB-75 CNS, 168 nM; in the experiment on T-47D breast, over 23200 nM; with SR leukemia, over 24300 nM; in the experiment on NCI-H460 lung, over 50000 nM; in the experiment on HOP-92 NSCLC, 2570 nM. For the same compound, the TGI in the experiment with CAKI-1 renal was 213 nM; in the experiment with OVCAR-4 ovarian, over 42100 nM; in the experiment on NCI-H226 lung it was over 14200 nM; in the experiment on NCI-H23 lung, over 27800 nM.

Turning to `CC(=O)ON=C1C=CC(=C(C#N)c2ccccc2)C=C1`, the GI50 was 1110 nM in the experiment with HL-60(TB) leukemia; 2000 nM in the experiment on SNB-75 CNS; 1050 nM with T-47D breast; 619 nM in the experiment with SR leukemia; 1510 nM in the experiment with NCI-H460 lung; 1670 nM with HOP-92 NSCLC. Further, the GI50 in the experiment on CAKI-1 renal is 396 nM; in the experiment with OVCAR-4 ovarian, 5510 nM; with NCI-H226 lung, 2880 nM; in the experiment on NCI-H23 lung it was 4710 nM. Also, the TGI was determined as 4870 nM in the experiment with HL-60(TB) leukemia; 13700 nM in the experiment on SNB-75 CNS; 11300 nM in the experiment on T-47D breast; 16500 nM in the experiment on SR leukemia; 6990 nM in the experiment with HOP-92 NSCLC; 2710 nM with CAKI-1 renal. In addition, the TGI is 22000 nM with OVCAR-4 ovarian, 9360 nM in the experiment on NCI-H226 lung and over 47400 nM in the experiment on NCI-H23 lung.

On to `Nc1n[nH]c2ccc([C@@H]3Nc4ccc5cn[nH]c5c4[C@H]4C5CCC(C5)[C@@H]34)cc12` (some centres not stated), for which the GI50 in the experiment with HL-60(TB) leukemia is 326 nM; in the experiment on SNB-75 CNS it was 171 nM; in the experiment with T-47D breast, 402 nM; in the experiment with SR leukemia, 361 nM; with NCI-H460 lung it was 382 nM; with HOP-92 NSCLC, 2140 nM. Besides, the GI50 was 347 nM with CAKI-1 renal, 2630 nM with OVCAR-4 ovarian, 977 nM in the experiment with NCI-H226 lung and 453 nM in the experiment with NCI-H23 lung. Also, the TGI with SNB-75 CNS was 3590 nM; in the experiment on T-47D breast it was over 100000 nM; with SR leukemia, over 100000 nM; in the experiment on NCI-H460 lung it was over 100000 nM; with HOP-92 NSCLC, over 89400 nM; in the experiment on CAKI-1 renal, over 48800 nM. Moreover, the TGI in the experiment on OVCAR-4 ovarian was over 100000 nM; in the experiment on NCI-H226 lung, 50000 nM; with NCI-H23 lung, 38500 nM.

In the case of `O=C(Nc1cccc(-n2cc(-c3ccncc3)c(-c3ccc(Cl)c(O)c3)n2)c1)Nc1ccc(Cl)c(Cl)c1`, the GI50 was 515 nM in the experiment on HL-60(TB) leukemia; 1090 nM with SNB-75 CNS; 1550 nM in the experiment with T-47D breast; 1140 nM in the experiment on SR leukemia; 993 nM in the experiment on NCI-H460 lung; 679 nM in the experiment with HOP-92 NSCLC. Moreover, the GI50 with CAKI-1 renal was 1110 nM; with OVCAR-4 ovarian, 1690 nM; with NCI-H226 lung it was 1510 nM; with NCI-H23 lung, 1220 nM. The TGI in the experiment with HL-60(TB) leukemia is over 32500 nM; with SNB-75 CNS, 12200 nM; in the experiment with T-47D breast it was 17900 nM; in the experiment on SR leukemia, 15000 nM; in the experiment with NCI-H460 lung, 3570 nM; in the experiment with HOP-92 NSCLC, 1910 nM. For the same compound, the TGI in the experiment with CAKI-1 renal is 14300 nM; with OVCAR-4 ovarian, over 32500 nM; in the experiment on NCI-H226 lung, over 32500 nM; in the experiment on NCI-H23 lung it was 29100 nM.

As for `COC(=O)[C@]12CC[C@@H](C)[C@H](C)[C@@H]1C1=CC[C@@H]3[C@@](C)(CC#N)C4=C(C[C@@]3(C)[C@]1(C)CC2)OC[C@]4(C)C=O`, the GI50 with HL-60(TB) leukemia is 3030 nM; in the experiment on SNB-75 CNS it was 3220 nM; in the experiment with T-47D breast, 2770 nM; in the experiment on SR leukemia, 2560 nM; in the experiment on NCI-H460 lung, 10500 nM; in the experiment on HOP-92 NSCLC it was 4530 nM. Further, the GI50 with CAKI-1 renal is 6320 nM; with OVCAR-4 ovarian, 4150 nM; in the experiment on NCI-H226 lung, 8510 nM; in the experiment with NCI-H23 lung, 3880 nM. In addition, the TGI was 6770 nM with HL-60(TB) leukemia; over 100000 nM in the experiment on SNB-75 CNS; 16100 nM in the experiment with T-47D breast; 7440 nM with SR leukemia; 28000 nM with NCI-H460 lung; 34700 nM in the experiment on HOP-92 NSCLC. The TGI in the experiment with CAKI-1 renal was over 100000 nM; in the experiment with OVCAR-4 ovarian, over 100000 nM; with NCI-H226 lung, 43700 nM; with NCI-H23 lung, 40700 nM.

As to `CCCCOC(=O)c1c(C)[nH]c(/C=C2\N=C(c3ccc[nH]3)C=C2OC)c1C`, the GI50 with HL-60(TB) leukemia is 581 nM; with SNB-75 CNS, 124 nM; in the experiment on T-47D breast, 347 nM; in the experiment on SR leukemia, 82.1 nM; in the experiment on NCI-H460 lung it was 61.3 nM; with HOP-92 NSCLC it was 163 nM. Also, the GI50 is 71 nM with CAKI-1 renal, 177 nM with OVCAR-4 ovarian, 310 nM with NCI-H226 lung and 254 nM with NCI-H23 lung. Besides, the TGI was 4000 nM with HL-60(TB) leukemia; 892 nM with SNB-75 CNS; 1900 nM in the experiment with T-47D breast; 1470 nM with SR leukemia; 2000 nM in the experiment with NCI-H460 lung; 637 nM with HOP-92 NSCLC. In addition, the TGI in the experiment on CAKI-1 renal was 3850 nM; in the experiment on OVCAR-4 ovarian it was 5040 nM; with NCI-H226 lung, 1720 nM; in the experiment with NCI-H23 lung, 2600 nM.

`Cc1cnc(-c2ccc(-c3ccc(NC(=O)Nc4c(F)cc(F)cc4F)cc3F)c3c2C(=O)NC3)[nH]1`: the GI50 with HL-60(TB) leukemia is 1100 nM and 946 nM; in the experiment on SNB-75 CNS, 2960 nM; in the experiment with T-47D breast, 2980 nM and 12600 nM; in the experiment with SR leukemia, 29.4 nM and < 10 nM; in the experiment on NCI-H460 lung it was 989 nM; with HOP-92 NSCLC, 1310 nM and 2010 nM. Also, the GI50 in the experiment with CAKI-1 renal was 1740 nM; in the experiment on OVCAR-4 ovarian it was 1440 nM; in the experiment on NCI-H226 lung it was 4200 nM and 6260 nM; in the experiment on NCI-H23 lung it was 286 nM and 545 nM. Further, the TGI in the experiment on HL-60(TB) leukemia is 12900 nM and 16900 nM; with SNB-75 CNS, 10900 nM; with T-47D breast, 20500 nM and 47500 nM; with NCI-H460 lung, 2750 nM; with HOP-92 NSCLC, 6370 nM and 12100 nM; with CAKI-1 renal, 27500 nM. For the same compound, the TGI was 3200 nM in the experiment on OVCAR-4 ovarian; 39900 nM and 36500 nM with NCI-H226 lung; 5500 nM and 6520 nM in the experiment on NCI-H23 lung.
